Assay results: PMC8667945, “Structure-based virtual screening and biological evaluation of novel small-molecule BTK inhibitors” (Journal of Enzyme Inhibition and Medicinal Chemistry, 2021)
pIC50: −log10 of the molar value.

Assays:
[1] = target: T1, Bruton tyrosine kinase (BTK) (Homo sapiens, UniProt Q06187); experiment: Z'LYTE biochemical kinase inhibition assay, dose response
[2] = target: T1, Bruton tyrosine kinase (BTK); experiment: Z'LYTE biochemical kinase inhibition assay, single dose (% inhibition at […])

T1 sequence (Q06187 2-659): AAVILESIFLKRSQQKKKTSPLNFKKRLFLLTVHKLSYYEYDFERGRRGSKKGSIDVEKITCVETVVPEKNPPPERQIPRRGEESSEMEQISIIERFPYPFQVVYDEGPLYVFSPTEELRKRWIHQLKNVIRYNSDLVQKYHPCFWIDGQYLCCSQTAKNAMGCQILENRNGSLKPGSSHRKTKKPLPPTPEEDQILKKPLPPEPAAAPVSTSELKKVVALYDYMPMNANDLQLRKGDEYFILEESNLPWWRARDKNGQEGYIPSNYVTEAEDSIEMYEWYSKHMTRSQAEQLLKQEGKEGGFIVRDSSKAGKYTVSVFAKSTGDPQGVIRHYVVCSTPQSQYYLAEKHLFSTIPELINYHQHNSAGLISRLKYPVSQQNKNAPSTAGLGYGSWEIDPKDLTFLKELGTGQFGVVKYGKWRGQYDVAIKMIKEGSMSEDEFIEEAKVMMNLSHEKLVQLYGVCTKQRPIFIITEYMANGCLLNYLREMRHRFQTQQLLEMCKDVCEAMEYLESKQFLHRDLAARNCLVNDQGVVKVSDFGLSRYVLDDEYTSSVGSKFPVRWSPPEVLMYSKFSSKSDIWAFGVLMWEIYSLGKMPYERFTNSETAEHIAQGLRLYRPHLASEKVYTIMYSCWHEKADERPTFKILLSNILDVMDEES

| Structure (SMILES) | pIC50 [1] | inhibition at 10 µM [2] [%] |
| --- | --- | --- |
| O=C(Sc1nc(SC(=O)c2ccccc2)c2cn[nH]c2n1)c1ccccc1 [NSC722944] | 5.80 |  |
| N#CCc1n[nH]c2nc(SCc3ccccc3)nc(Nc3nnc(S)s3)c12 [NSC724520] | 5.68 |  |
| C(=Nc1nc(N2CCOCC2)nc2[nH]ncc12)c1ccco1 [NSC725686] | 6.08 |  |
| COc1ccc(/C=N/Nc2nc(SCc3ccccc3)nc3[nH]ncc23)cc1OC [NSC726558] |  | 59 |
| C(=Nc1nc(NCc2ccccc2)nc2[nH]ncc12)c1cccs1 [NSC726593] | 5.30 |  |
